According to patent US20130281526A1, “METHOD FOR TREATING IRRITABLE BOWEL SYNDROME WITH DIARRHEA” (SUCAMPO AG, priority 2012, published 2013):

Tests used:
[1] = test system: patients with irritable bowel syndrome with diarrhea; assay: Subject symptom assessments, change from baseline after 12 weeks treatment; format: in vivo, human; settings: 16 mcg per day for 12 weeks
Method: The patients with irritable bowel syndrome with diarrhea defined in Example 1 received luboiprostone 16 mcg per day for 12 weeks.
The assessments were conducted by the following criterias.
Subject Evaluation of Abdominal Bloating: 0=Absent, 1=Mild, 2=Moderate, 3=Severe, and 4=Very Severe Subject Evaluation of Abdominal. Discomfort/Pain: 0=Absent, 1=Mild, 2=Moderate, 3=Severe, and 4=Very Severe Subject Evaluation of Constipation Severity: 0= Absent, 1=Mild, 2=Moderate, 3=Severe, and 4=Very Severe BM Frequency=(7×Number of BMs)/(Number of days) Subject Evaluation of Bowel Straining: 0=Absent, 1=Mild, 2=Moderate, 3=Severe, and 4=Very Severe

[2] = test system: patients with irritable bowel syndrome with diarrhea; assay: Weekly responder rate for relief of IBS symptoms (7-point balanced scale) in patients; format: in vivo, human; settings: 16 mcg per day, responder = moderately or significantly relieved
Source text: The patients who had 25% or more loose or very loose stools during the baseline were enrolled as a patient with irritable bowel syndrome with diarrhea. The patients received placebo or lubiprostone 16 mcg per day.

SMILES: CCCCC(F)(F)[C@@]1(O)CC[C@H]2[C@@H](CC(=O)[C@@H]2CCCCCCC(=O)O)O1 [lubiprostone, (−)-7-[(2R, 4aR, 5R, 7aR)-2-(1,1-difluoropentyl)-2-hydroxy-6-oxooctahydrocyclopenta[b]pyran-5-yl]heptancoic acid]
- BM Frequency, change from the baseline after the treatment ([1]; BM Frequency=(7×Number of BMs)/(Number of days), baseline 3.64): 0.36
- Abdominal Discomfort/Pain, change from the baseline after the treatment ([1]; score 0=Absent to 4=Very Severe, baseline 2.80): −1.08
- Constipation Severity, change from the baseline after the treatment ([1]; score 0=Absent to 4=Very Severe, baseline 3.16): −1.31
- Abdominal Bloating, change from the baseline after the treatment ([1]; score 0=Absent to 4=Very Severe, baseline 3.28): −1.37
- Bowel Straining, change from the baseline after the treatment ([1]; score 0=Absent to 4=Very Severe, baseline 4.00): −2.00
- Weekly Responder Rate ([2]; Week 2): 33.8%
- Weekly Responder Rate ([2]; Week 3): 34.9%
- Weekly Responder Rate ([2]; Week 4): 34.7%
